Assay results reported in PMC4434572, “Identification of novel drugs to target dormant micrometastases” (BMC Cancer, 2015).
Where two headings read alike, the source gives them in different places.

Key:
[1] = system: PC-3 (prostate); test: Proliferation EC50 on SISgel vs monolayer; format: cell-based; details: n = 6-8
Description: (§1) The libraries were obtained from the NCI (Diversity Library I) comprised of 2,918 compounds and a 10,000 compound diversity library from ChemBridge, Inc. (DiverSet-EXP). The NCI library is no longer available in the form used here, but how it was constructed is described (http://dtp.nci.nih.gov/branches/dscb/diversity_explanation.html). The ChemBridge library is a subset (Set Code NM1024) of the full 50,000 compound library (http://www.chembridge.com/screening_libraries/diversity_libraries/). Compounds were diluted to 100 μM before use. SISgel was prepared as described previously from powdered porcine small intestine submucosa obtained from Cook Biotech (W. Lafayette, IN). It is a natural product that is used extensively in tissue engineering as a bioscaffold. J82 bladder cancer cells and other cell lines were obtained from the ATCC (Bethesda, MD). The basic principle is that cells grown on any ECM are, in general, expected to show higher resistance to anticancer compounds than when grown on plastic. Therefore, compounds that show a higher activity toward cancer cells on a normal ECM than on a plastic surface would be candidates to target suppressed, micrometastatic cells. Efficacy in vitro was assessed by plating 30,000 cells in 50 μL of high glucose DMEM with penicillin-streptomycin and 10 % fetal calf serum on SISgel in a 96-well plate containing 50 μL of gelled SISgel per well. Cells were allowed to attach and assume the SISgel phenotype for 48 h. A matching plate without SISgel was prepared 24 h later by pipetting 3,000 cells in 100 μL of high glucose DMEM with penicillin-streptomycin and 10 % fetal calf serum into each well of 96 well plate. The cells were allowed to attach and grow for 24 h. These numbers of cells gave approximately equal replication rates at the time drug was added for cells grown on the plastic surface or SISgel as determined by the fraction of S-phase cells identified by flow cytometry. The cells were exposed to drug in fresh medium for 48 h, at which time the cell number was determined using the CFDA-AM cellular esterase proliferation assay (cat. #C1354, Life Technologies). For screening the results are reported as the ratio of cell count of cells on the plastic surface to the cell count on SISgel. An initial difference of 1.5 fold identified potential hits. All potential hits were confirmed in triplicate. Those compounds that replicated were confirmed by a full dose–response study yielding an EC50 using five wells per drug concentration. Data were analyzed using nonlinear regression to a sigmoid curve with Prism 4 (GraphPad Software, Inc., LaJolla, CA). Potential hits that were confirmed by dose–response using J82 were also tested with MDA-MB-435 breast cancer, PC-3 metastatic prostate cancer, Capan1 pancreatic cancer and the J82 bladder cancer cell lines.

[2] = system: J82 (bladder); test: Proliferation EC50 on SISgel vs monolayer; format: cell-based; details: n = 6-8
Description: as §1

[3] = system: Capan-1 (pancreatic); test: Proliferation EC50 on SISgel vs monolayer; format: cell-based; details: n = 6-8
Description: as §1

[4] = system: MDA-MB-435 cells; test: Proliferation (CFDA-AM esterase assay) of cells grown on SISgel, plastic or Matrigel, 48 h drug exposure; format: cell-based; details: MDA-MB-435 grown on Matrigel (fully malignant phenotype)
[5] = system: MDA-MB-231 (breast); test: Proliferation EC50 on SISgel vs monolayer; format: cell-based; details: n = 6-8
[6] = system: cancer cells on SISgel or plastic; test: Activity of leads and analogs on cancer cells grown on plastic vs SISgel (cell line not stated); format: cell-based; details: for Hit: YES/NO; for SR: ratio IC50-p/IC50-S
Summary of the method: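 Cells on SISgel (30,000/well, 48 h attachment) or plastic (3,000/well, 24 h) were exposed to compound (diluted to 100 μM) for 48 h in high-glucose DMEM with 10 % FCS. Cell number quantified by CFDA-AM esterase assay; results given as plastic:SISgel cell-count ratio, hits confirmed in triplicate, curves fitted sigmoidally.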

[7] = in vivo; details: mouse
[8] = PC-3 monolayer, read-out: EC50 Monolayer
[9] = PC-3 on SISgel, read-out: EC50 SISgel
[10] = cells on SISgel, read-out: IC50-S
[11] = cells on plastic, read-out: IC50-p

Row | Compound | EC50 [1, 8] | EC50 [1, 9] | EC50 ([2]; J82 monolayer, read-out: EC50 Monolayer) | EC50 ([2]; J82 on SISgel, read-out: EC50 SISgel) | EC50 ([3]; Capan-1 monolayer, read-out: EC50 Monolayer) | EC50 ([3]; Capan-1 on SISgel, read-out: EC50 SISgel) | EC50 [4] | EC50 ([5]; MDA-MB-231 monolayer, read-out: EC50 Monolayer) | EC50 ([5]; MDA-MB-231 on SISgel, read-out: EC50 SISgel) | Hit [6] | IC50 [6, 10] | IC50 [6, 11] | SR [6] | MTD ([7]; BALB/c, ip) | MTD [7] | EC50 ([5]; Homo sapiens, MDA-MB-231 monolayer, read-out: EC50 Monolayer) | EC50 ([5]; Homo sapiens, MDA-MB-231 on SISgel, read-out: EC50 SISgel)
1 | O=S(=O)([O-])c1cc(O)c2c(O)c(N=Nc3cccc4ccccc34)c(S(=O)(=O)[O-])cc2c1.[Na+].[Na+] [DT320, 4,5-Dihydroxy-3-(1-naphthalenylazo)-2,7-naphthalenedisulfonic acid disodium salt] | 41.5 ± 4.1 µM | 19.7 ± 2 µM | 71.2 ± 8.1 µM | 30.9 ± 4.8 µM | 80.1 ± 10.2 µM | 22.9 ± 4.8 µM | 48.2 µM | 78.1 ± 7.1 µM | 8.7 ± 1.1 µM | YES | 9 µM | 78 µM | 9.0 | – | – | – | –
2 | COc1cccc2c1C(=O)c1c(O)c3c(c(O)c1C2=O)C[C@@](O)(C(=O)CO)C[C@@H]3O[C@H]1C[C@H](N)[C@H](O)[C@H](C)O1 [Doxorubicin, reference compound] | 104 ± 6.1 µM | 102 ± 7 µM | – | – | – | – | – | – | – | – | – | – | – | 1 mg/kg | 1 mg/kg | 45.4 ± 1.9 µM | 47.8 ± 4 µM
3 | O=S(=O)([O-])c1ccc2c(N=Nc3cccc4ccccc34)c(O)c(S(=O)(=O)[O-])cc2c1.[Na+].[Na+] [DT310, 4-(1-naphthalenylhydrazinylidene) -3-oxonaphthalene-2,7-disulfonic acid] | – | – | – | – | – | – | – | – | – | YES | 36 µM | 87 µM | 2.4 | – | – | – | –
